Test results from patent US12680065B2, “Artificial placenta and methods of preparation” (The Trustees of the University of Pennsylvania, priority 2015, dated 2026).

Key:
BeWo cells = experiment: Forskolin-induced trophoblast syncytialization in the microfluidic device (immunofluorescence); format: cell-based, human
Experimental: (§1) Following the formation of a confluent epithelial monolayer on the membrane surface in the upper microchannel, the apical side of the epithelium can be treated with forskolin to activate the protein kinase A pathway in the cultured trophoblasts. A stock solution of forskolin (Sigmal 5 mg/mL in DMSO) can be diluted with F-12K medium to a final concentration of 50 uM and perfused through the upper microchannel. After 72 hours of forskolin treatment, the trophoblast cells can be fixed in 4% PFA, permeabilized in Triton-X 100, and then incubated with 2% BSA in PBS for immunofluorescence staining. To analyze changes in junctional protein expression, the samples can be incubated with anti-E-cadherin antibody (Life Technologies) in 2% BSA, followed by secondary antibody and DAPI. Additionally, media perfusate can be collected at 48, 72, and 96 hours from both untreated and forskolin-treated devices. The collected samples can be analyzed using a human chorionic gonadotropin beta (β-hCG) ELISA kit (Abcam) to quantify the levels of β-hCG produced by the trophoblast population at each time point.
Accordingly, when the BeWo cells in the maternal compartment are exposed to forskolin, they can begin to undergo cell-cell fusion as illustrated by nuclear aggregation that can be evident at 72 hours of forskolin treatment (FIG. 9B). […]

trophoblast cells = experiment: β-hCG ELISA of maternal compartment perfusate; format: cell-based, human; details: 50 uM forskolin; no detectable β-hCG in the absence of forskolin
Experimental: as §1, with “([…]” for “(Sigmal”, “point. […] Accordingly, the production of the […] of hCG in the maternal compartment can be measured to quantitatively examine syncytialization. […]” for “point.”

Structure (SMILES): C=C[C@@]1(C)CC(=O)[C@]2(O)[C@@]3(C)[C@@H](O)CCC(C)(C)[C@@H]3[C@H](O)[C@H](OC(C)=O)[C@@]2(C)O1 [forskolin]
- fraction of BeWo population undergoing cell-cell fusion (nuclear aggregation) (BeWo cells; 50 uM forskolin in upper microchannel, 72 hours): approximately 50%
- effect on cell viability (BeWo cells; 50 uM forskolin, BeWo cells in maternal compartment): does not necessarily exert deleterious effects on cell viability
- time to production of hCG by trophoblast cells (trophoblast cells): ≤ 48 h
